{"source": "paper PMC12071365", "about": "“Discovery of Boronic Acids-Based β-Lactamase Inhibitors Through In Situ Click Chemistry” (International Journal of Molecular Sciences, 2025)", "key": {"[1]": {"target": "T1, AmpC (Escherichia coli, UniProt P00811)", "T1 sequence (P00811 20-377)": "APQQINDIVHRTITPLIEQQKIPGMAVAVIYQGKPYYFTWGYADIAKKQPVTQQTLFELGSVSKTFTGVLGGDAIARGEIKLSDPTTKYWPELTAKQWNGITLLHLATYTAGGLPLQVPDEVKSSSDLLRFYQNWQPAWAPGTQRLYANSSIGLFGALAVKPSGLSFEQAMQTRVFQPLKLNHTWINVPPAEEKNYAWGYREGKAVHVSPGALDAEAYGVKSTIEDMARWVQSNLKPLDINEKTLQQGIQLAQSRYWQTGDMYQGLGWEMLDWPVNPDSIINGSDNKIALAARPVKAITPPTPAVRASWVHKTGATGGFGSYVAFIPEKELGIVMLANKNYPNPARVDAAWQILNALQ", "assay": "Competitive inhibition assay with nitrocefin, Ki", "type": "biochemical", "design": "made in house", "experimental": "(§1) The β-lactamases used in the present study were from a Clinical Biochemistry Laboratory collection (Department of Biotechnological and Applied Clinical Sciences, University of L’Aquila, L’Aquila, Italy). […] The concentration of each enzyme was determined by a Bradford assay.\n(§2) The plot v0/vi versus [I] yielded a straight line of slope KM/(KM + S) × Ki.\nFigure 9 Compounds synthesised and their biological evaluation. AC = Amplification coefficient. […] Light blue indicates the compounds from the AmpC screening."}, "[2]": {"target": "T2, KPC-2 (Klebsiella pneumoniae, UniProt Q9F663)", "T2 construct": "made in house", "T2 sequence (Q9F663 25-293, looked up, species assumed)": "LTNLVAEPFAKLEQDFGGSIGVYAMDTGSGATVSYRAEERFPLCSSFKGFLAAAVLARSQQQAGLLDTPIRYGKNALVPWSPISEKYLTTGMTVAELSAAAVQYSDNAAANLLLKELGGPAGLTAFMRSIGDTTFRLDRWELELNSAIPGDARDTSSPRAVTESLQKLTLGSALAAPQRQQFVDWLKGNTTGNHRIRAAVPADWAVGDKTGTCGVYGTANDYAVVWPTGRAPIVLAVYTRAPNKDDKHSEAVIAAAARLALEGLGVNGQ", "settings": "KPC-2 20 mol%; warhead 3 + alkyne cluster; 37 °C, 24 h", "experimental": "Starting from the azido-functionalised boronic acid 3, optimised conditions (see SI Table S2) were applied in combination with the 90-component alkyne library. The reactions were conducted in 0.2 mL microtubes in a 95:5 sodium phosphate 50 mM pH 7.0:DMSO mixture (final volume 100 µL), stirring at 300 rpm at 37 °C for 24 h (Scheme 1).\nThe experiments were conducted in triplicate, using a reaction mixture containing one equivalent of warhead 3, five equivalents of each alkyne cluster (9 alkynes), and 20 mol% KPC-2 as the catalyst. Product formation was monitored directly from the crude mixture using a hybrid quadrupole orbitrap LC–MS system in the ESI+ or ESI- mode after 24 h. Peak areas of the desired products were compared across three conditions: with KPC-2, without any enzyme, and with bovine serum albumin (BSA). […] The resulting ratio, named as the amplification coefficient (AC), was calculated from the peak area of the product obtained in the presence of KPC-2 vs. the one acquired with the controls.\n(§3) Binary and multicomponent KTGS. […] The microtube was shaken at 300 rpm at 37 °C for 24 h. Reactions were transferred into a LC–MS vial and directly injected (10 µL) for liquid chromatography–mass spectrometry (LC–MS). Reactions were analysed with an Ultimate 3000 UHPLC coupled to a Q-exactive hybrid quadrupole-orbitrap mass spectrometer via an HESI-II heated electrospray ionisation source. The chromatographic separation was performed injecting a 10 µL sample volume on a Hypersil Gold C18 100 × 2.1 mm, 1.9 µm column (Thermo Fisher Scientific), kept at 30 °C eluting with 0.3 mL/min flow of ultrapure water (A) and methanol (B), both with 0.1% formic acid as mobile phase. […] A data-dependent mass spectrometric data acquisition strategy was used for full MS/DD-MS2. […] An inclusion list was eventually used to target the MS2 spectra acquisition of preferred ion species. Detection was based on calculated [M+H]^+ and [M−H]^− molecular ions with a 5 ppm accuracy tolerance for their respective ion chromatogram extraction. Peak retention time and area of detected target compounds was used for their detection and semi-quantitative evaluation in between reaction batches.\n(§4) For controls (buffer and BSA), AmpC/KPC-2 is replaced with no enzyme (buffer volume 95 µL) and BSA (stock 100 µM, final concentration 5 µM, buffer volume 90 µL). Hits were identified in each cluster by mass and retention time and compared with both controls (buffer and BSA) and synthetically prepared triazoles obtained in mixtures."}, "[3]": {"target": "T1, AmpC", "design": "made in house", "settings": "AmpC 20 mol%; warhead 3 + alkyne cluster; 37 °C, 24 h", "experimental": "Following the same conditions used for the multicomponent screening with KPC-2, the in situ click chemistry experiment was performed using AmpC as template.\nas §3, §4"}, "[4]": {"target": "T2, KPC-2", "assay": "Competitive inhibition assay with nitrocefin, Ki", "type": "biochemical", "experimental": "as §1, §2\nAC = Amplification coefficient. In the AC column, between brackets reports the regioisomeric ratio observed (1,4- vs. 1,5-) and bold reports the synthesised regioisomer. Light blue indicates the compounds obtained from the KPC-2 screening."}, "[5]": {"system": "O=C(Cc1cccs1)N[C@@H]1C(=O)N2C(C(=O)O)=C(/C=C/c3ccc([N+](=O)[O-])cc3[N+](=O)[O-])CS[C@H]12", "assay": "KM of reporter substrate (Hanes-Woolf)", "type": "biochemical", "settings": "pH 7.0", "description": "The β-lactamases used in the present study were from a Clinical Biochemistry Laboratory collection (Department of Biotechnological and Applied Clinical Sciences, University of L’Aquila, L’Aquila, Italy). All enzymes show a purity degree of higher than 95%. The concentration of each enzyme was determined by a Bradford assay."}, "[6]": {"system": "O=C(Cc1cccs1)N[C@@H]1C(=O)N2C(C(=O)O)=C(/C=C/c3ccc([N+](=O)[O-])cc3[N+](=O)[O-])CS[C@H]12", "assay": "purified protein, by the assay type"}, "[7]": {"system": "C[C@@H](O)[C@H]1C(=O)N2C(C(=O)O)=C(S[C@@H]3CN[C@H](C(=O)N(C)C)C3)[C@H](C)[C@H]12", "assay": "purified protein, by the assay type"}}, "note": "Read-outs that look alike come from different tables or passages of the source.", "data": [{"compound": "COC(=O)c1cccc(CS(=O)(=O)NCc2cn(Cc3cccc(B(O)O)c3)nn2)c1", "note": "[compound 7]", "values": [{"measurement": "Ki", "setting": "[1]; AmpC, values in nM", "result": 300, "unit": "nM"}, {"measurement": "AC (amplification coefficient)", "setting": "[2]", "result": "5-6"}, {"measurement": "AC (amplification coefficient)", "setting": "[3]", "result": "4-5"}, {"measurement": "Ki", "setting": "[4]", "result": 1700, "unit": "nM"}]}, {"compound": "CCCCC(=O)NCc1cn(Cc2cccc(B(O)O)c2)nn1", "note": "[compound 8]", "values": [{"measurement": "Ki", "setting": "[1]", "result": 1500, "unit": "nM"}, {"measurement": "Ki", "setting": "[4]", "result": "7600 ± 400", "unit": "nM"}]}, {"compound": "CC(C)CC(O)c1cn(Cc2cccc(B(O)O)c2)nn1", "note": "(stereo not drawn) [compound 9]", "values": [{"measurement": "Ki", "setting": "[1]", "result": 11000, "unit": "nM"}, {"measurement": "Ki", "setting": "[4]", "result": "5600 ± 300", "unit": "nM"}]}, {"compound": "O=S(=O)(NCc1cn(Cc2cccc(B(O)O)c2)nn1)C1CCCCC1", "note": "[compound 10]", "values": [{"measurement": "Ki", "setting": "[1]; AmpC, values in nM", "result": 600, "unit": "nM"}, {"measurement": "Ki", "setting": "[4]", "result": "670 ± 100", "unit": "nM"}]}, {"compound": "CN(C)c1ccc(-c2cn(Cc3cccc(B(O)O)c3)nn2)cc1", "note": "[compound 11]", "values": [{"measurement": "Ki", "setting": "[1]; AmpC, values in nM", "result": 280, "unit": "nM"}, {"measurement": "Ki", "setting": "[4]", "result": 460, "unit": "nM"}]}, {"compound": "COC(=O)c1ccc(C(=O)NCc2cn(Cc3cccc(B(O)O)c3)nn2)cc1", "note": "[compound 12]", "values": [{"measurement": "Ki", "setting": "[1]; AmpC, values in nM", "result": 400, "unit": "nM"}, {"measurement": "AC (amplification coefficient)", "setting": "[3]", "result": "3-4"}]}, {"compound": "O=C(CCC1CCCCC1)NCc1cn(Cc2cccc(B(O)O)c2)nn1", "note": "[compound 13]", "values": [{"measurement": "Ki", "setting": "[1]; AmpC, values in nM", "result": 800, "unit": "nM"}]}, {"compound": "ADC-25 (Acinetobacter baumannii)", "values": [{"measurement": "Km", "setting": "[5]", "result": "120 ± 3", "unit": "µM µM"}]}, {"compound": "CMY-2 (Klebsiella pneumoniae)", "values": [{"measurement": "Km", "setting": "[6]; other: CMY-2, NaPi 50 mM pH 7.0", "result": "8 ± 1", "unit": "µM µM"}]}, {"compound": "CTX-M-15 (Escherichia coli)", "values": [{"measurement": "Km", "setting": "[6]; other: CTX-M-15, NaPi 50 mM pH 7.0", "result": "35 ± 1", "unit": "µM µM"}]}, {"compound": "IMP-1 (Serratia marcescens)", "values": [{"measurement": "Km", "setting": "[7]; other: IMP-1, HEPES 20 mM pH 7.0 + 20 µM Zn", "result": "30 ± 1", "unit": "µM µM"}]}, {"compound": "OXA-24 (Acinetobacter baumannii)", "values": [{"measurement": "Km", "setting": "[6]; other: OXA-24, NaPi 50 mM pH 7.0", "result": "29 ± 1", "unit": "µM µM"}]}, {"compound": "VIM-1 (Pseudomonas aeruginosa PAO1)", "values": [{"measurement": "Km", "setting": "[7]; other: VIM-1, HEPES 20 mM pH 7.0 + 20 µM Zn", "result": "130 ± 4", "unit": "µM µM"}]}]}
